According to patent publication US8343998B2, “Triazolothiadiazole inhibitor of c-Met protein kinase” (Vertex Pharmaceuticals Incorporated, priority 2008, dated 2013):
Converted amounts (≈) assume the structure as drawn. “And” between values parts separate entries of the source, which are not always exact repeats. Equal values may be shown once. Read-outs that look alike come from different tables or passages of the source.

Key:
hERG = target: T1, hERG (Homo sapiens, UniProt Q12809); assay: hERG inhibition assay, whole cell recording in HEK293 cells expressing hERG; assay type: cell-based; settings: hERG current, peak tail current
T1 construct: host or cells: HEK293
T1 sequence (Q12809 whole entry): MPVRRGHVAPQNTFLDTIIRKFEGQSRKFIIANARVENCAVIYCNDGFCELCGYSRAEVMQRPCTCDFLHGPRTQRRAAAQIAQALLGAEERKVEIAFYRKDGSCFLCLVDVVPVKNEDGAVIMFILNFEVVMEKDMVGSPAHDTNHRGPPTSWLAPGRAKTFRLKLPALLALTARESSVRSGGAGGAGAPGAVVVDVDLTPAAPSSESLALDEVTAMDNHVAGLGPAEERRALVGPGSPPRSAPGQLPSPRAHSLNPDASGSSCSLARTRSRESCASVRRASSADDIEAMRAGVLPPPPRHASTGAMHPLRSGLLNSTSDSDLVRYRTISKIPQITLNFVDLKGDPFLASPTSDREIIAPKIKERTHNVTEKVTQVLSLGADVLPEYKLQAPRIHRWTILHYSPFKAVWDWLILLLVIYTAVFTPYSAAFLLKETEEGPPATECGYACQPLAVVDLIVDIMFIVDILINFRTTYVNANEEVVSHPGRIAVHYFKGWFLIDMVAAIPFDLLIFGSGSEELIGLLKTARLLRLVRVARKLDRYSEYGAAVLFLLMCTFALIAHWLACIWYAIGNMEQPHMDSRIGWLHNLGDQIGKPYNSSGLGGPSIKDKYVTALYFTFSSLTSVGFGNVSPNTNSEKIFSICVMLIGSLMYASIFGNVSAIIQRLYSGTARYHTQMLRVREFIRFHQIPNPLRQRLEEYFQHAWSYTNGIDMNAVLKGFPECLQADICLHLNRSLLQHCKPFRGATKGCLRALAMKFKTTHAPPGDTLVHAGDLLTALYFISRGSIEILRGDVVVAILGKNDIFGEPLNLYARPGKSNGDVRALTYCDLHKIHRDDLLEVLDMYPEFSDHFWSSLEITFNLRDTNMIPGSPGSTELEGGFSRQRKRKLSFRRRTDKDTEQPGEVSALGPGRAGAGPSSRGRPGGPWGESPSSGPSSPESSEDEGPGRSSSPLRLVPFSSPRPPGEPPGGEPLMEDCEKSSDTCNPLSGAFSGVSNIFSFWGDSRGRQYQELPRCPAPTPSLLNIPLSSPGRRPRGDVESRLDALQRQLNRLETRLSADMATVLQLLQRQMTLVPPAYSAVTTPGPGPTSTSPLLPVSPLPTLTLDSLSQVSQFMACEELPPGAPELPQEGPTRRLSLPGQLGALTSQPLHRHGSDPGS
Experimental: Peak tail current was measured during the 2 second step to −50 mV.

CYP2D6 = target: T2, CYP2D6 (Homo sapiens, UniProt P10635); assay: Stability in human recombinant CYP isoform; assay type: in vitro ADME; settings: 120 minutes, 50 pmoles CYP/mL, NADPH, two separate studies (two lines)
T2 construct: host or cells: baculovirus-infected insect cells
T2 sequence (P10635 whole entry, canonical isoform): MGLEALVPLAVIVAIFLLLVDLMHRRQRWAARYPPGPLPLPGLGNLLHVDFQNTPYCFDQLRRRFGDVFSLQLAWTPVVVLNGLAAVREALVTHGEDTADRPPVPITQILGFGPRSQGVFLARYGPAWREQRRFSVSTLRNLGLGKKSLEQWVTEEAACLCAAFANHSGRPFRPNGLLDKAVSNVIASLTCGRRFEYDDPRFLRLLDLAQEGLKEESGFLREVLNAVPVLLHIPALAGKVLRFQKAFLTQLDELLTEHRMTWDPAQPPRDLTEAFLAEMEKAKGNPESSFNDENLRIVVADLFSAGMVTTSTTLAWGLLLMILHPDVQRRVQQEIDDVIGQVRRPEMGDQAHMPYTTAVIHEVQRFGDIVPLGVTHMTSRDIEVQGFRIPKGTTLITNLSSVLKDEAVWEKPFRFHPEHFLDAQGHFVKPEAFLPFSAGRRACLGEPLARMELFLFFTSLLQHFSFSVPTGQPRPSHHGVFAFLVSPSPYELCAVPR
Experimental: (§1) The stability of compound 1 was evaluated in cDNA Baculovirus-insect cell-expressed human cytochrome P450 (CYP) isoforms CYP1A2, CYP2B6, CYP2C9, CYP2C19, CYP2D6, CYP2E1, and CYP3A4. Accordingly, the human recombinant cytochrome P450 isoforms at a final concentration of 50 pmoles of CYP/mL were incubated in phosphate buffer (pH 7.4) with 2.0 mM NADPH and compound 1 at compound concentrations of 1 μM and 10 μM. Sampling was conducted at 0 and 120 minutes and the amount of compound remaining was evaluated by LC/MS/MS analysis.

CYP1A2 = target: T3, CYP1A2 (Homo sapiens, UniProt P05177); assay: Stability in human recombinant CYP isoform; assay type: in vitro ADME; settings: 120 minutes, 50 pmoles CYP/mL, NADPH, two separate studies (two lines)
T3 construct: host or cells: baculovirus-infected insect cells
T3 sequence (P05177 1-516): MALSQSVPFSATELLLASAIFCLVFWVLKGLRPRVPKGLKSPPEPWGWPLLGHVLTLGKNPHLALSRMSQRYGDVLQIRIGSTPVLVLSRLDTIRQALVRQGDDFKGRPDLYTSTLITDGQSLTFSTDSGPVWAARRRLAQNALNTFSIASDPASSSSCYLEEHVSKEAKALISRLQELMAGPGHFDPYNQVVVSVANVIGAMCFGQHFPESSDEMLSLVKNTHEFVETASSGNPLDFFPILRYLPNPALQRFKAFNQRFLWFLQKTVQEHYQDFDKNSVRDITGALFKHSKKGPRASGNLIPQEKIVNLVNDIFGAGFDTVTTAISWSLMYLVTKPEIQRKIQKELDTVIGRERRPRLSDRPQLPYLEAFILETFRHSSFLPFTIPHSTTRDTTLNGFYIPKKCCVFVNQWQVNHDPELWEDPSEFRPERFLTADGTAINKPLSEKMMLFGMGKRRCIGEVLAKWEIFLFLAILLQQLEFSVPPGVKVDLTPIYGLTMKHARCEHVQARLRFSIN
Experimental: as §1

CYP3A4 = target: T4, CYP3A4 (Homo sapiens, UniProt P08684); assay: Stability in human recombinant CYP isoform; assay type: in vitro ADME
T4 construct: host or cells: baculovirus-infected insect cells
T4 sequence (P08684 whole entry, canonical isoform): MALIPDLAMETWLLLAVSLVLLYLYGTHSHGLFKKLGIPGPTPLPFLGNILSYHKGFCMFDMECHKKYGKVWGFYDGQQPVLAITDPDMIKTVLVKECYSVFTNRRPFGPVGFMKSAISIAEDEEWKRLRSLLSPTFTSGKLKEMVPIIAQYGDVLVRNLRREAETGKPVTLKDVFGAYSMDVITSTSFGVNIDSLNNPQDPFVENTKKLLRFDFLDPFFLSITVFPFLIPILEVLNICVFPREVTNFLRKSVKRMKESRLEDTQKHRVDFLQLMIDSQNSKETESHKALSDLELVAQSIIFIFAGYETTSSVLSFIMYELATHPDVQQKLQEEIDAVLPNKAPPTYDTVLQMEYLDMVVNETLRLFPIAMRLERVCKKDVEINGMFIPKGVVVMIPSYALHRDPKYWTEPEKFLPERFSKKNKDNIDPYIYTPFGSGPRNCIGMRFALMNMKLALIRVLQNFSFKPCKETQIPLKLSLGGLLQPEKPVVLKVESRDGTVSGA
Experimental: as §1

CYP2C19 = target: T5, CYP2C19 (Homo sapiens, UniProt P33261); assay: Stability in human recombinant CYP isoform; assay type: in vitro ADME
T5 construct: host or cells: baculovirus-infected insect cells
T5 sequence (P33261 whole entry, canonical isoform): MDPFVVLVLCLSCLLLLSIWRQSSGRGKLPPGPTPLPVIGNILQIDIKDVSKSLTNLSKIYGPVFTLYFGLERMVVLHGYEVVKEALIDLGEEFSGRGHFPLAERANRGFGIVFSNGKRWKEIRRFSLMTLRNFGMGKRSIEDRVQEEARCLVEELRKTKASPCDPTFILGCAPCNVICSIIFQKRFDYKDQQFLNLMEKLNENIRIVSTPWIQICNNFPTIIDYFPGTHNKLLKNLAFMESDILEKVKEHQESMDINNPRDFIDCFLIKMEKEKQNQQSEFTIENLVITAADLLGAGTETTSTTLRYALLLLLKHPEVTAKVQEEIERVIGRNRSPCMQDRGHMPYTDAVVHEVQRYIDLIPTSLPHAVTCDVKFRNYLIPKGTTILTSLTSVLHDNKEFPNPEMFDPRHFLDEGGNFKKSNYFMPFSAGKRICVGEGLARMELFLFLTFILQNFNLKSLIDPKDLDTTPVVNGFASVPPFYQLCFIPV
Experimental: as §1

CYP2B6 = target: T6, CYP2B6 (Homo sapiens, UniProt P20813); assay: Stability in human recombinant CYP isoform; assay type: in vitro ADME; settings: 120 minutes, 50 pmoles CYP/mL, NADPH, two separate studies (two lines)
T6 construct: host or cells: baculovirus-infected insect cells
T6 sequence (P20813 1-491): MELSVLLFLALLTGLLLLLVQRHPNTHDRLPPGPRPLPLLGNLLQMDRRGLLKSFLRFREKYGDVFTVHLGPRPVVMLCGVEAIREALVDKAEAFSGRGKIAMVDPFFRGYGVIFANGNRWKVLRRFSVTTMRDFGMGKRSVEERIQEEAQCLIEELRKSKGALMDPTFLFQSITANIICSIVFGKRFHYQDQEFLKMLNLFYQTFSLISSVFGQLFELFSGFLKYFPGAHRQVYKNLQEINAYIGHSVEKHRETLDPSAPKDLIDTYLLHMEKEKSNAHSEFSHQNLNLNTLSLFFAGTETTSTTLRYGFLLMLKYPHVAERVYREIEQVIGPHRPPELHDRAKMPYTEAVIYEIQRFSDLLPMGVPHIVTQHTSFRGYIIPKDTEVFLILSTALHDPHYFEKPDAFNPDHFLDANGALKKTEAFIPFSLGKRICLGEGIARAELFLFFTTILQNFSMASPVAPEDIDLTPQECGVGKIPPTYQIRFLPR
Experimental: as §1

CYP2E1 = target: T7, CYP2E1 (Homo sapiens, UniProt P05181); assay: Stability in human recombinant CYP isoform; assay type: in vitro ADME; settings: 120 minutes, 50 pmoles CYP/mL, NADPH, two separate studies (two lines)
T7 construct: host or cells: baculovirus-infected insect cells
T7 sequence (P05181 whole entry, canonical isoform): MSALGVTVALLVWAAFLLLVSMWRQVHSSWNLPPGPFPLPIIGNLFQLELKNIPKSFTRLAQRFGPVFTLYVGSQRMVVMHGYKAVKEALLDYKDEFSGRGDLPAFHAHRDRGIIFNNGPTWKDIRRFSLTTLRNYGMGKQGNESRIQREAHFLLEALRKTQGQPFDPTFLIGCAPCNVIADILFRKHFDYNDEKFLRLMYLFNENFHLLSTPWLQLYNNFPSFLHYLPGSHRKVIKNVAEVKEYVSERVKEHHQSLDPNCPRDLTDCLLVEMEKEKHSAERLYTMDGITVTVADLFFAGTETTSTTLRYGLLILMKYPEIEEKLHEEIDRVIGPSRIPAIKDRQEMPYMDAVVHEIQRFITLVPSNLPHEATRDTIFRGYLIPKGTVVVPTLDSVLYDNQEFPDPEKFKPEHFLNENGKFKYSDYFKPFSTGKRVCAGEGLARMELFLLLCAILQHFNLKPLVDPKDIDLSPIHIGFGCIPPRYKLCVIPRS
Experimental: as §1

CYP2C9 = target: T8, CYP2C9 (Homo sapiens, UniProt P11712); assay: Stability in human recombinant CYP isoform; assay type: in vitro ADME; settings: 120 minutes, 50 pmoles CYP/mL, NADPH, two separate studies (two lines)
T8 construct: host or cells: baculovirus-infected insect cells
T8 sequence (P11712 whole entry, canonical isoform): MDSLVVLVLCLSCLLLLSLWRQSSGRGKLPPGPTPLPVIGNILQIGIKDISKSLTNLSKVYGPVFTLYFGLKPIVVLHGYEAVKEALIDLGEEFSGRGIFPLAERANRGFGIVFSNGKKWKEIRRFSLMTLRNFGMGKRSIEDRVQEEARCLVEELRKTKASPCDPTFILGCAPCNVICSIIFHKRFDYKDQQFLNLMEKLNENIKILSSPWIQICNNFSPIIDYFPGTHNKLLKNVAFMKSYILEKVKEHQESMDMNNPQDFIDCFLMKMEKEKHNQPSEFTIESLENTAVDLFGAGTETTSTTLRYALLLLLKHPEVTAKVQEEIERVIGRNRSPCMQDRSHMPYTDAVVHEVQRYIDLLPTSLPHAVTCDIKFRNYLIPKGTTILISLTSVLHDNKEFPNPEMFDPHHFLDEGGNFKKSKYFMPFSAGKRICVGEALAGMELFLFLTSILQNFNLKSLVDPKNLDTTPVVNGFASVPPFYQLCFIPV
Experimental: as §1

c-Met = target: T9, c-Met (Homo sapiens, UniProt P08581); assay: Inhibition of c-Met activity in Snu5 gastric carcinoma cells (Snu5-AP1-Luc-Pest luciferase signal); assay type: cell-based; settings: 6 hours, luciferase luminescence
T9 construct: is a human gastric carcinoma known to overexpress c-Met, which is constitutively active; host or cells: Snu5-AP1-Luc-Pest (Snu5 transduced with an AP1-luciferase-PEST reporter)
T9 sequence (P08581 25-1390): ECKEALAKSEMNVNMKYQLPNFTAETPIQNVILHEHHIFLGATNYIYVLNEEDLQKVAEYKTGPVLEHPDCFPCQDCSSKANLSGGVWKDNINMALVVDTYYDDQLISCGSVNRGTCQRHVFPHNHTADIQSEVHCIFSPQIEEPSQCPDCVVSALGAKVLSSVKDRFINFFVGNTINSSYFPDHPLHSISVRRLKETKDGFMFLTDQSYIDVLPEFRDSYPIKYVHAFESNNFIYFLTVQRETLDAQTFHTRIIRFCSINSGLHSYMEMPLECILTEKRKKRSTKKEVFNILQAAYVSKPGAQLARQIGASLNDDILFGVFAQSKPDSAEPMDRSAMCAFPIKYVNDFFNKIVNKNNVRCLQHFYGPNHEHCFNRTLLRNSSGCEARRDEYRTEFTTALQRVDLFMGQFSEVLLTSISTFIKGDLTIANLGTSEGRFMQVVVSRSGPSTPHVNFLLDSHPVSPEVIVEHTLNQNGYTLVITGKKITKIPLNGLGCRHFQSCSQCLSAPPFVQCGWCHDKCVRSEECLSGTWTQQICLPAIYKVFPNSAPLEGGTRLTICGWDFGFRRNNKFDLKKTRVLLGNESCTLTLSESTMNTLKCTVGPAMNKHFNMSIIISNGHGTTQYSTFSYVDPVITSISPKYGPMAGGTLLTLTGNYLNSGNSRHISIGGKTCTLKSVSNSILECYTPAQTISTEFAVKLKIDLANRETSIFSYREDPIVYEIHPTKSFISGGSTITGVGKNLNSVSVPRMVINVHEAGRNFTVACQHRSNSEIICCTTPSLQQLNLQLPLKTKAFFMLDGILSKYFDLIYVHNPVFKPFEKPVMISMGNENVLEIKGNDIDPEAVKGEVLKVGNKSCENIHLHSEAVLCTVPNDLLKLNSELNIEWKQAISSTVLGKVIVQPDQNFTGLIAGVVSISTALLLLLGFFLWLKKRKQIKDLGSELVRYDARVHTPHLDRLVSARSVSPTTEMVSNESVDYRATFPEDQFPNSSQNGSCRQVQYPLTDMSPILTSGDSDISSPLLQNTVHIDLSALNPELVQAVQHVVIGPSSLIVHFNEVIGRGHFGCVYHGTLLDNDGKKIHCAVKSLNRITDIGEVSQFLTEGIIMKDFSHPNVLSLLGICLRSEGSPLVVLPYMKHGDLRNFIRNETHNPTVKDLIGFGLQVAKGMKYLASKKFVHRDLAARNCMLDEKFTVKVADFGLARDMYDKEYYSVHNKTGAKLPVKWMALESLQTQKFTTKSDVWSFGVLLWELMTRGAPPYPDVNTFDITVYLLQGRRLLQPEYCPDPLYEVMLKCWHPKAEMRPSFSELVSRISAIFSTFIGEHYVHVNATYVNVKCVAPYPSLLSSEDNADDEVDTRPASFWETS
Excerpt: Compound 1 was also screened for their ability to inhibit the Luciferase-induced signal in an engineered Snu5 cell line. Snu5 [obtained from American Type Culture Collection (Catalog number CRL-5973)] is a human gastric carcinoma known to overexpress c-Met, which is constitutively active. […] The constitutively active c-Met activates cellular pathways (principally MAP kinase), resulting in AP-1-induced transcription of luciferase-PEST and translation into the final product, the activity of which is quantifiable as a chemiluminescent readout upon the addition of luciferin (Steady-Glo from Promega.). Residual luminescence is strongly correlated to the inhibition of c-Met. A stable cell line was obtained by selecting the new cell line (Snu5-AP1-Luc-Pest) with puromycin. The cells were grown in complete media [Iscove's media (Invitrogen) containing 10% fetal bovine serum (FBS, Hyclone) and penicillin/gentamycin (Invitrogen)]. Compounds of the invention were dissolved in DMSO to make 10 mM initial stock solutions. Serial dilutions in DMSO were then made and transferred to complete medium to make a 10× solution. The Snu5-AP1-Luc-Pest cells were counted and diluted to 200,000-cells/mL solution. […] The plate was read on a 1450 Microbeta Liquid Scintillation and Luminescence Counter (Perkin-Elmer). The IC50 was calculated using a 4-parameter fit using the graphing software Prism (GraphPad).

[1] = Solubility of compound 1 crystalline free base in different solvents, by HPLC; assay type: physicochemical; settings: thermodynamic from solid, crystalline free base slurry, room temperature, 4 day solution, read-out: Conc. FB (solubility)
Experimental: About 10 mg of compound 1, crystalline free base (FB), was loaded into a vial with a magnetic stir bar. About 150 μL of solvent were added to each vial. If compound 1 dissolved completely, more solid was added to the vial and stirring of the resulting slurry was continued at room temperature. The 4 day solution was filtered off using centrifuge filters and diluted in methanol to obtain solubility data by HPLC analysis. X-ray diffraction data of the crystals in the slurry were collected after 4 and 14 days.

[2] = compound at 10 μM, 120 minutes, 50 pmoles CYP/mL, NADPH, two separate studies (two lines)

Compound: C[C@@H](c1ccc2ncccc2c1)c1nnc2sc(-c3cnn(C)c3)nn12 [Compound 1, 6-((S)-1-(6-(1-methyl-1H-pyrazol-4-yl)-[1,2,4]triazolo[3,4-b][1,3,4]thiadiazol-3-yl)ethyl)quinoline]
- IC50 (hERG): 110 µM
- % remaining +/− SDEV (CYP2D6; compound at 1 μM): 102 +/− 3.6% and 125 +/− 44.2%
- % remaining +/− SDEV (CYP2D6; compound at 10 μM): 94.7 +/− 4.4% and 130 +/− 11%
- % remaining +/− SDEV (CYP1A2; compound at 1 μM): 113 +/− 7.2% and 79 +/− 9.6%
- % remaining +/− SDEV (CYP1A2; compound at 10 μM): 96.7 +/− 4.3% and 86 +/− 7.8%
- % remaining +/− SDEV (CYP3A4; [2]): 31.8 +/− 2.1% and 56 +/− 14%
- Metabolism by the CYP isoform, in words (CYP3A4; summary of Table 4): metabolized by both CYP2C19 and CYP3A4 isoforms
- % remaining +/− SDEV (CYP2C19; [2]): 40.3 +/− 2.2% and 34 +/− 3.3%
- Metabolism by the CYP isoform, in words (CYP2C19; summary of Table 4): metabolized by both CYP2C19 and CYP3A4 isoforms
- % remaining +/− SDEV (CYP2B6; compound at 1 μM): 93 +/− 5.4% and 91.7 +/− 10.4%
- % remaining +/− SDEV (CYP2B6; compound at 10 μM): 99 +/− 4.8% and 101 +/− 1.4%
- % remaining +/− SDEV (CYP2E1; compound at 1 μM): 109 +/− 19% and 164 +/− 54.8%
- % remaining +/− SDEV (CYP2E1; compound at 10 μM): 109 +/− 5.6% and 111 +/− 1.1%
- % remaining +/− SDEV (CYP2C9; compound at 1 μM): 128 +/− 22.5% and 96 +/− 2.2%
- % remaining +/− SDEV (CYP2C9; compound at 10 μM): 101 +/− 4.4% and 101 +/− 8.5%
- IC50 (c-Met): 23 nM
- solubility at 4 day ([1]; organic solvent or mixture, solvent 2-Methyl THF): 9.03 mg/mL (≈ 25 mM)
- solubility at 4 day ([1]; organic solvent or mixture, solvent Acetone): 14.3 mg/mL (≈ 39.5 mM)
- solubility at 4 day ([1]; organic solvent or mixture, solvent Acetonitrile): 9.76 mg/mL (≈ 27 mM)
- solubility at 4 day ([1]; organic solvent or mixture, solvent Benzyl Alcohol): 362 mg/mL (≈ 1000 mM)
- solubility at 4 day ([1]; organic solvent or mixture, solvent Cumene): 2.52 mg/mL (≈ 6.97 mM)
- solubility at 4 day ([1]; organic solvent or mixture, solvent DCM): 116 mg/mL (≈ 322 mM)
- solubility at 4 day ([1]; organic solvent or mixture, solvent DME): 16.1 mg/mL (≈ 44.4 mM)
- solubility at 4 day ([1]; organic solvent or mixture, solvent DMSO): 67.7 mg/mL (≈ 187 mM)
- solubility at 4 day ([1]; organic solvent or mixture, solvent Diiodomethane): 81 mg/mL (≈ 224 mM)
- solubility at 4 day ([1]; organic solvent or mixture, solvent Dioxane): 36.8 mg/mL (≈ 102 mM)
- solubility at 4 day ([1]; organic solvent or mixture, solvent EtOAc): 7.24 mg/mL (≈ 20 mM)
- solubility at 4 day ([1]; organic solvent or mixture, solvent Ethanol): 42.1 mg/mL (≈ 116 mM)
- solubility at 4 day ([1]; organic solvent or mixture, solvent Ethylene Glycol): 35.3 mg/mL (≈ 97.8 mM)
- solubility at 4 day ([1]; organic solvent or mixture, solvent Glycerol): 0.69 mg/mL (≈ 1.91 mM)
- solubility at 4 day ([1]; organic solvent or mixture, solvent IPA): 7.92 mg/mL (≈ 21.9 mM)
- solubility at 4 day ([1]; organic solvent or mixture, solvent MEK): 14.2 mg/mL (≈ 39.4 mM)
- solubility at 4 day ([1]; organic solvent or mixture, solvent MTBE): 0.3 mg/mL (≈ 0.83 mM)
- solubility at 4 day ([1]; organic solvent or mixture, solvent Methanol): 41 mg/mL (≈ 114 mM)
- solubility at 4 day ([1]; organic solvent or mixture, solvent Nitromethane): 44.4 mg/mL (≈ 123 mM)
- solubility at 4 day ([1]; solvent water): 0.15 mg/mL (≈ 0.415 mM)
